Patent publication US20070014727A1, “Contrast media for nuclear spin tomography with use of the overhauser effect” (priority 2005, published 2007)

Key:
Type in all cases: physicochemical
[1] = EPR measurement of oxygen sensitivity (EPR line widening after flushing with oxygen); details: for widening of the EPR line after the solution is flushed with oxygen: in toluene, reversible
[2] = Electron spin relaxation times by pulsed spin-echo EPR (X-band) and CW EPR line widths (L-band) in liquid solution; details: pulsed spin-echo EPR in X-band (9.5 GHz), CW EPR line widths in L-band (1.1 GHz)
Excerpt: The substance N@C63(COOH)6 (III) according to the invention has long spin-relaxation times of the unpaired electron. It was possible to measure very long electronic relaxation times T1e≅150 μs and T2e≅22 μs in liquid solution, which are longer by at least one order of magnitude than that of the […], (see FIG. 4) with pulsed spin-echo EPR measurements in X-band (9.5 GHz EPR larmor frequency) and from CW EPR line widths in the L-band (1.1 GHz of EPR larmor frequency). From [ii] Table 3, page 8, in isotonic NaCl solution at 37° C.: “predeuterated trityl”: T1e≅13 μs, T2e≅8 μs; “deuterated hydroxy trityl”: T1e≅11 μs, T2e≅8 μs, “symmetrical trityl”: T1e≅9 μs, T2e≅9 μs.

[3] = Relaxometric measurement of proton relaxivity; details: aqueous solution, spin concentration 6 μm, 37° C., about 15 mT (600 kHz)
Description: Substance (III) has a relaxivity r1≅47 mM^−1s^−1 (compared to the trityl derivatives with relaxivity values of between 0.14 mM^−1s^−1 and 0.44 mM^−1s^−1 [ii], and [iii]) in aqueous solution with a spin concentration of 6 μm at a solvent temperature of 37° C. This unexpectedly high value is present at a magnetic field strength of about 15 mT, which corresponds to a radiofrequency of 600 kHz and thus to the conditions of very low magnetic field strength that are necessary for OMRI.

| Substance | oxygen-sensitivity [1] | widening of the EPR line after the solution is flushed with oxygen [1] | electronic relaxation time T1e [2] [μs] | electronic relaxation time T2e [2] [μs] | relaxivity r1 [3] [mM⁻¹ s⁻¹] |
| --- | --- | --- | --- | --- | --- |
| N@C60 [I] | low | does not occur |  |  |  |
| P@C60 [IX] | elevated | 20 × |  |  |  |
| N@C63 (COONa)6 [III] |  |  | ~150 | ~22 | ~47 |
